Results from paper PMC8875392, “Design and Characterization of Myristoylated and Non-Myristoylated Peptides Effective against Candida spp. Clinical Isolates” (International Journal of Molecular Sciences, 2022).
Where no end group is shown, it is not given here.

Key:
[1] = system: C. albicans clinical isolates; assay type: cell-based, Candida albicans; settings: 16 h
Protocol: (§1) The antifungal activity of AMPs was determined against 50 clinical isolates, 10 for each of the following Candida species: C. albicans, C. tropicalis, C. glabrata, C. parapsilosis, and C. auris. The latter were derived from patients with positive blood cultures in four hospitals in India, with known resistance profiles to fluconazole, voriconazole, and echinocandins. Yeast cells were grown in Brain Heart Infusion (BHI) medium (Sigma-Aldrich, Gillingham, UK) for 16 h at 37 °C in a 150-rpm orbital shaker. Cells were then sub-inoculated in a fresh BHI medium and grown to an optical density (OD) of 0.3. The turbidity of the inoculum was adjusted to 0.5 McFarland and diluted 1:500 in RPMI 1640 broth, corresponding to around […].
(§2) Minimal inhibitory concentrations (MICs) were determined by Broth microdilution susceptibility tests, according to The Clinical and Laboratory Standards Institute (CLSI) international guidelines. A fungal suspension of 0.5 MacFarland was diluted 1:500 in RPMI 1640 broth and incubated in 96 multi-well plates containing AMPs at different concentrations ranging from 0.125 to 256 μg/mL. In this range of concentration, lipopeptides were completely soluble. […] The MIC90 represents the value at which ≥90% of the strains within a test population were inhibited.

[2] = system: C. glabrata clinical isolates; assay type: cell-based, Candida glabrata; settings: 16 h
Protocol: as §1, §2

[3] = system: C. parapsilosis clinical isolates; assay type: cell-based, Candida parapsilosis; settings: clinical isolates, 16 h
Protocol: as §1, §2

[4] = system: C. tropicalis clinical isolates; assay type: cell-based, Candida tropicalis; settings: clinical isolates, 16 h
Protocol: as §1, §2

[5] = system: C. auris clinical isolates; assay type: cell-based, Candida auris; settings: clinical isolates, 16 h
Protocol: as §1, §2

[6] = system: Galleria mellonella larvae; assay: In vivo peptide toxicity in Galleria mellonella model; settings: uninfected larvae, groups of ten, peptide 640 µg/mL, single injection, 30 °C
Protocol: Multidrug-resistant C. auris was chosen as a representative species for in vivo studies. […] Groups of ten G. mellonella larvae were infected with C. auris and treated with the Pep-B and Myr-B peptides at a concentration of 640 µg/mL (about 400 µM).
Ten larvae (250–320 mg each) were selected at random for each step in the procedure. Any larvae with darkening of the cuticle were discarded. The test compounds and yeast were injected into the hemocoel in water buffer through the last left proleg (Insumed 30G Pic, Italy, syringe volume 0.5 mL, needle size 30G). The larvae were incubated in the dark for 3 days, and mortality was recorded daily.
For the peptide efficacy experiment, ten larvae were injected into the last left proleg with a pre-determined infective dose of yeast and the dose of peptides at the same time in a final volume of 10 μL and incubated at 30 °C. Each step in the procedure included six groups of 10 larvae: C. auris-infected larvae (10^7 CFU), infected and treated larvae with peptide B (640 μg/mL), infected and treated larvae with peptide Myr-B (640 μg/mL), treated larvae with peptide B (640 μg/mL), treated larvae with peptide Myr-B (640 μg/mL), and vehicle-injected control (water). The mortality was recorded daily for 3 days.

rabbit erythrocytes = settings: 5 µM
Protocol: The hemolytic assay was performed on rabbit erythrocytes (Rockland) maintained in Alsever’s solution (Innovative Research). Briefly, after the removal of Alsever’s solution, the erythrocytes were resuspended in PBS and counted in a hemocytometer. A suspension of 5,000,000 red blood cells was incubated with four dilutions (from 5 µm to 50 µm) of the six peptides in a 96-well microplate. As a negative control, erythrocytes were incubated without the peptides, while as a positive control, erythrocyte was added with triton 10% v/v. The plate was incubated at 37 °C for 2 h and subsequently centrifuged at 1200 rpm × 3 min to separate the pellet from the supernatant. The absorbance of the supernatant was measured at 492 nm. Each point was made in triplicate. The relative OD compared to the positive control defined the percentage of hemolysis [71]. Statistical analysis was performed using two-way ANOVA analysis followed by Bonferroni’s post-test.

| Sequence | MIC [1] [µg/mL] | MIC90 [1] [µg/mL] | MIC [2] [µg/mL] | MIC90 [2] [µg/mL] | MIC [3] [µg/mL] | MIC90 [3] [µg/mL] | MIC90 [4] [µg/mL] | MIC90 [5] [µg/mL] | Peptide toxicity, DAY 1 Dead [6] | Peptide toxicity, DAY 2 Dead [6] | Peptide toxicity, DAY 3 Dead [6] | hemolysis (rabbit erythrocytes) [%] |
| --- | --- | --- | --- | --- | --- | --- | --- | --- | --- | --- | --- | --- |
| WVVKKVKGLLK [Pep-C] | > 256 | >256 | > 256 | >256 | > 256 | >256 | >256 | >256 | – | – | – | – |
| WRGITKVVKKV [Pep-B] | > 256 | >256 | > 256 | >256 | > 256 | >256 | >256 | >256 | 3 | 5 | 9 | – |
| WFGKLYRGITK [Pep-A] | > 256 | >256 | > 256 | >256 | > 256 | >256 | >256 | >256 | – | – | – | 0.1 |
